Data taken from US8859546B2, “Picolinamide inhibitors of kinases” (AbbVie Inc., priority 2011, dated 2014).

molecular target: T1, ALK (Homo sapiens, UniProt Q9UM73); assay: ALK kinase assay (HTRF), apparent Ki; type: biochemical; conditions: apparent Ki from IC50 by Cheng-Prusoff; ALK (Millipore), 50 μM ATP; read-out: HTRF_ALK Human-Ki
T1 construct: purchased Millipore
Protocol: The following procedure is used to determine ALK Activity.
ALK kinase assays were conducted with the indicated final concentrations unless otherwise specified. In 384 well black plates (Axygen), 8 μl of compound (2% DMSO) was incubated with 8 μl Lck-peptide substrate (0.5 μM, biotin-Ahx-GAEEEIYAAFFA-COOH) and 8 μl of a mixture of ALK (3 nM, Millipore) and ATP (50 μM) in reaction buffer (50 mM Hepes, pH 7.4; 10 mM MgCl2; 2 mM MnCl2; 0.1 mM sodium orthovanadate; 0.01% BSA and 1 mM DTT (added fresh before assay) for 1 h at room temperature. Reactions were then quenched by the addition of 30 μl quench solution (streptavidin-allophycocyanin and Europium-cryptate PT66 monoclonal antibody in 40 mM Hepes, pH 7.4; 480 mM KF; 66 mM EDTA; 0.01% Tween-20; and 0.1% BSA) at room temperature. Plates were read 1 h after quenching on an Envision Multilaber Reader and IC50 values were calculated using a sigmoidal fit of the concentration/inhibition response curves. These values were converted to apparent Ki values using the Cheng-Prusoff relationship.
Alternatively, 4 nM ALK (Millipore) and 50 μM ATP were pre-incubated for 30 min at room temperate in 384 well plates (Corning 3676) in 2.5× reaction buffer (125 nM SEB from Cisbio Bioassays, 12.5 mM MgCl2, 5 mM MnCl2, and 2.5 mM DTT). Reactions were initiated by the addition of 4 μl ALK-ATP mixture to 2 μl compounds (2% DMSO) and 4 μl TK-substrate biotin (Cisbio Bioassays). After incubation for 1 h at room temperature, reactions were quenched in 10 μl stop buffer (Cisbio detection buffer containing Streptavididn-XL665 and Eu-Cryptate PT66 monoclonal antibody). Plates were read 1 h after quenching on an Envision Multilaber Reader and IC50 values were calculated using a sigmoidal fit of the concentration/inhibition response curves. These values were converted to apparent Ki values using the Cheng-Prusoff relationship. Results are shown in Table 1 A correlates to an Ki=<100 nM, B correlates to an Ki between 100 nM and 1 μM, C correlates to an Ki=>1 μM.

T1 sequence (Q9UM73 19-1620): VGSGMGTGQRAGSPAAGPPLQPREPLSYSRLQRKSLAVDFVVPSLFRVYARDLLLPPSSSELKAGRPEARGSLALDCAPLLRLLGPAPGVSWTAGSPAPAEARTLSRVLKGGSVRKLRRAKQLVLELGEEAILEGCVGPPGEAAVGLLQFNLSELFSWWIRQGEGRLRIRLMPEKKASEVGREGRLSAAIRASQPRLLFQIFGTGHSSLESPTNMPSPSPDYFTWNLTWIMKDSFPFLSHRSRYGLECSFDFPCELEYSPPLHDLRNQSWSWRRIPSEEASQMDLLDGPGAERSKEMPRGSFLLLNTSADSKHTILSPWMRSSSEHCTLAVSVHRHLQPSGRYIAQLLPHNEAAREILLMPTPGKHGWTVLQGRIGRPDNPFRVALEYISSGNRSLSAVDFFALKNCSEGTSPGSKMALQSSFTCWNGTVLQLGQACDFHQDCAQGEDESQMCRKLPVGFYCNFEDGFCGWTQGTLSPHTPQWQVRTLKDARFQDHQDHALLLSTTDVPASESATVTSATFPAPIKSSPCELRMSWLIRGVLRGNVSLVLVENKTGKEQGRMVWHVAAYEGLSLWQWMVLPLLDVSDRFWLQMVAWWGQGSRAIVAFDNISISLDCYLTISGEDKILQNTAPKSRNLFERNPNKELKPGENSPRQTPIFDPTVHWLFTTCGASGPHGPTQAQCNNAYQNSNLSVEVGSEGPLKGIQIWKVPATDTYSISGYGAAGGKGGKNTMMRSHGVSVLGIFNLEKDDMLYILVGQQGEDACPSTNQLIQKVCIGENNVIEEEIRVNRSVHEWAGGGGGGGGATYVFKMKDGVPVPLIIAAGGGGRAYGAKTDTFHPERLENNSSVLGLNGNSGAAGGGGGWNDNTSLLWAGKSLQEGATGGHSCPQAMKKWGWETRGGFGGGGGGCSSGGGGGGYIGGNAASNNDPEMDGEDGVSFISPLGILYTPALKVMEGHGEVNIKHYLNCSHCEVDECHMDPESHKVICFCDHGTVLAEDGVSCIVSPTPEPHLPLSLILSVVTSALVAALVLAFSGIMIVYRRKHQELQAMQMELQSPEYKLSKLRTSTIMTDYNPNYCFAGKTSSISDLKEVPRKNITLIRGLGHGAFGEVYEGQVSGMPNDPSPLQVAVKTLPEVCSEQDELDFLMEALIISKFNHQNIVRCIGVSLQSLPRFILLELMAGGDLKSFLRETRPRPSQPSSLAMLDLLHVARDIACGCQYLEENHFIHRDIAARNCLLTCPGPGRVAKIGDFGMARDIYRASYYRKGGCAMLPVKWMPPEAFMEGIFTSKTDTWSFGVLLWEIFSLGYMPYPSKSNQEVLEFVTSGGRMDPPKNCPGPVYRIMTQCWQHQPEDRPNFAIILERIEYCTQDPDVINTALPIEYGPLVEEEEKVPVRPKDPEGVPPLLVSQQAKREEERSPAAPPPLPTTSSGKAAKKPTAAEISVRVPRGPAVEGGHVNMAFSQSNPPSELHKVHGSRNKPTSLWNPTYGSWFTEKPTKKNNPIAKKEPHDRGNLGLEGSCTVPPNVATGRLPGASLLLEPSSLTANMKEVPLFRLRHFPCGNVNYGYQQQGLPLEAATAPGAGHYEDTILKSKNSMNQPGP

Structure (SMILES)	Ki [nM]
CC(c1cccc(F)c1)c1cnc(C(N)=O)c(Nc2ccc(N3CCN(C)CC3)c(Cl)c2)c1 (centres unmarked) [Example 36, 3-{[3-chloro-4-(4-methylpiperazin-1-yl)phenyl]amino}-5-[1-(3-fluorophenyl)ethyl]pyridine-2-carboxamide]	100 to 1000
CN1CCN(c2ccc(Nc3cc(-c4cnn(C)c4)cnc3C(N)=O)cc2)CC1 [Example 64, 3-{[4-(4-methylpiperazin-1-yl)phenyl]amino}-5-(1-methyl-1H-pyrazol-4-yl)pyridine-2-carboxamide]	> 1000
CN1CCN(c2ccc(Nc3cc(Cc4ccccc4)cnc3C(N)=O)cc2Cl)CC1 [Example 7, 5-benzyl-3-{[3-chloro-4-(4-methylpiperazin-1-yl)phenyl]amino}pyridine-2-carboxamide]	100 to 1000
CN1CCN(c2ccc(Nc3cc(-c4cccc(C(=O)N(C)C)c4)cnc3C(N)=O)cc2)CC1 [Example 62, 5-[3-(dimethylcarbamoyl)phenyl]-3-{[4-(4-methylpiperazin-1-yl)phenyl]amino}pyridine-2-carboxamide]	100 to 1000
CC(c1ccccc1)c1cnc(C(N)=O)c(Nc2ccc(N3CCN(C)CC3)cc2)c1 (centres unmarked) [Example 11, 3-{[4-(4-methylpiperazin-1-yl)phenyl]amino}-5-(1-phenylethyl)pyridine-2-carboxamide]	100 to 1000
CN1CCN(c2ccc(Nc3cc(/C=C/c4ccccc4)cnc3C(N)=O)cc2)CC1 [Example 56, 3-{[4-(4-methylpiperazin-1-yl)phenyl]amino}-5-[(E)-2-phenylvinyl]pyridine-2-carboxamide]	> 1000

Next, values leading:

Ki [nM]	Structure (SMILES)
100 to 1000	COc1cc(N2CCNCC2)ccc1Nc1cc(Cc2c(F)ccc(F)c2Cl)cnc1C(N)=O [Example 48, 5-(2-chloro-3,6-difluorobenzyl)-3-{[2-methoxy-4-(piperazin-1-yl)phenyl]amino}pyridine-2-carboxamide]
100 to 1000	Cc1cc(N2CCN(C)CC2)ccc1Nc1cc(Cc2ccccc2)cnc1C(N)=O [Example 9, 5-benzyl-3-{[2-methyl-4-(4-methylpiperazin-1-yl)phenyl]amino}pyridine-2-carboxamide]
100 to 1000	COc1cc(N2CCN(C)CC2)ccc1Nc1cc(C(C)c2cccc(F)c2)cnc1C(N)=O (centres unmarked) [Example 37, 5-[1-(3-fluorophenyl)ethyl]-3-{[2-methoxy-4-(4-methylpiperazin-1-yl)phenyl]amino}pyridine-2-carboxamide]
< 100	CN1CCN(c2ccc(Nc3cc(Cc4c(F)cccc4Cl)cnc3C(N)=O)cc2)CC1 [Example 30, 5-(2-chloro-6-fluorobenzyl)-3-{[4-(4-methylpiperazin-1-yl)phenyl]amino}pyridine-2-carboxamide]
< 100	CN1CCN(c2ccc(Nc3cc(Cc4c(F)cccc4F)cnc3C(N)=O)cc2)CC1 [Example 15, 5-(2,6-difluorobenzyl)-3-{[4-(4-methylpiperazin-1-yl)phenyl]amino}pyridine-2-carboxamide]
